Some test systems named below: 786-0; A549; DU-145; HCT-116; HOP-92; IGROV-1; M14; MCF7; MDA-MB-435; MOLT-4; NCI/ADR-RES; OVCAR-5; OVCAR-8; PC-3; RPMI-8226; SF-268; SF-295; U-251; UO-31.
What all share (assay): inhibition of tumour cell growth, NCI panel, 48 h

Consider four molecules from ChEMBL document CHEMBL1201862, “PubChem BioAssay data set” (2004).

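Method: 48-hour compound exposure of cells in 96-well plates, five concentrations, linear interpolation of endpoints. GI50: concentration for 50% inhibition of growth.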 Active and inactive are the calls of the source. Cut-off read from the data, not from the text of the source: active = GI50 up to about 1.1 µM and inactive = higher.

For the molecule `Cc1cccc(C(C)(C)C)c1NC(=O)C(C#N)C1=C(Cl)C(=O)c2ccccc2C1=O` (stereo unspecified), the GI50 was 16.2 µM (inactive) in the assay with 786-0; 21.7 µM (inactive) in the assay with A549; 22 µM (inactive) with DU-145; 14.1 µM (inactive) in the assay on HCT-116; 3.93 µM (inactive) with HOP-92; 18.4 µM (inactive) in the assay with IGROV-1. The GI50 is 18 µM (inactive) with M14; 15.8 µM (inactive) with MCF7; 16.7 µM (inactive) with MDA-MB-435; 2.74 µM (inactive) in the assay with MOLT-4; 16.6 µM (inactive) in the assay with NCI/ADR-RES; 17.9 µM (inactive) with OVCAR-5. Also, the GI50 was 18.2 µM (inactive) in the assay on OVCAR-8; 13.5 µM (inactive) with PC-3; 8.83 µM (inactive) with RPMI-8226; 17.1 µM (inactive) with SF-268; 15.9 µM (inactive) in the assay on SF-295; 16.9 µM (inactive) in the assay on U-251. For the same molecule, the GI50 in the assay on UO-31 is 14.7 µM (inactive).

Take `COC(=O)/C=C\C(C#N)(C#N)/N=C/c1cc(Br)cs1`: the GI50 was 1.94 µM (inactive) in the assay with 786-0; 18 µM (inactive) in the assay with A549; 7.31 µM (inactive) in the assay with DU-145; 1.76 µM (inactive) in the assay with HCT-116; 2.19 µM (inactive) in the assay on HOP-92; 3.44 µM (inactive) in the assay with IGROV-1. The GI50 in the assay with M14 is 2.51 µM (inactive); with MCF7 it was 1.51 µM (inactive); in the assay with MDA-MB-435, 2.38 µM (inactive); with MOLT-4 it was 1.89 µM (inactive); in the assay on NCI/ADR-RES, 15.7 µM (inactive); in the assay on OVCAR-5 it was 6.84 µM (inactive). Besides, the GI50 with OVCAR-8 is 3.84 µM (inactive); with PC-3, 5.09 µM (inactive); with RPMI-8226, 3.24 µM (inactive); in the assay with SF-268, 6.1 µM (inactive); with SF-295, 17.9 µM (inactive); in the assay with U-251 it was 13.9 µM (inactive). Further, the GI50 in the assay with UO-31 is 2.14 µM (inactive).

Regarding `COc1ccc(C(Nc2ncccn2)c2cc3c(cc2O)OCO3)cc1` (stereo unspecified), the GI50 is 18 µM (inactive) with 786-0; 32.2 µM (inactive) in the assay with A549; 20.5 µM (inactive) in the assay on DU-145; 29.4 µM (inactive) in the assay with HCT-116; 37.2 µM (inactive) with HOP-92; 23 µM (inactive) in the assay with IGROV-1. In addition, the GI50 with M14 is 20.6 µM (inactive); with MCF7 it was 23.5 µM (inactive); with MDA-MB-435 it was 19.9 µM (inactive); in the assay with MOLT-4 it was 26.3 µM (inactive); with NCI/ADR-RES it was 30.8 µM (inactive); in the assay on OVCAR-5, 31.8 µM (inactive). The GI50 in the assay on OVCAR-8 is 19.2 µM (inactive); with PC-3, 19.5 µM (inactive); in the assay on RPMI-8226, 22.8 µM (inactive); in the assay with SF-268 it was 17.3 µM (inactive); in the assay on SF-295, 65.8 µM (inactive); in the assay on U-251, 15.4 µM (inactive). Further, the GI50 in the assay on UO-31 was 17.1 µM (inactive).

Take `COc1cc2c(cc1OCCCCOc1cc(-c3ccc(F)cc3)nc(C)n1)N=C[C@@H]1CCCN1C2=O`: the GI50 in the assay on 786-0 was 0.486 µM (active); in the assay with A549 it was 1.15 µM (inactive); in the assay on DU-145, 0.225 µM (active); in the assay on HCT-116, 0.838 µM (active); with HOP-92 it was 0.443 µM (active); with IGROV-1 it was 0.731 µM (active). In addition, the GI50 in the assay with M14 was 0.678 µM (active); in the assay with MCF7 it was 0.502 µM (active); in the assay with MDA-MB-435, 0.652 µM (active); in the assay with MOLT-4 it was 0.108 µM (active); in the assay with NCI/ADR-RES, 0.45 µM (active); with OVCAR-5 it was 0.272 µM (active). Moreover, the GI50 with OVCAR-8 is 0.989 µM (active); in the assay with PC-3, 0.759 µM (active); in the assay on RPMI-8226, 0.0519 µM (active); in the assay on SF-268, 0.771 µM (active); in the assay on SF-295 it was 0.303 µM (active); with U-251, 0.2 µM (active). Further, the GI50 in the assay with UO-31 is 0.5 µM (active).
